Data published in the kinase profiling compilation of Christmann-Franck et al. (2016).

Assays:
Assay in all cases: radiometric filter-binding kinase assay
[1] = target: ABL1 (human) (UniProt P00519)
[2] = target: AURKB (human) (UniProt Q96GD4)
[3] = target: CAMKK2 (human) (UniProt Q96RR4)
[4] = target: CDK2 CCNA2 (human) (UniProt P20248+P24941)
[5] = target: CDK9 CCNT1 (human) (UniProt P50750+O60563)
[6] = target: CSK (human) (UniProt P41240)
[7] = target: CSNK1D (human) (UniProt P48730)
[8] = target: DYRK3 (human) (UniProt O43781)
[9] = target: FGFR1 (human) (UniProt P11362)
[10] = target: FLT1 (human) (UniProt P17948); settings: compound 1.0 µM
[11] = target: GCK (human) (UniProt Q12851)
[12] = target: MAP2K1 (human) (UniProt Q02750)
Chain of MAP2K1 (human) (Q02750 whole entry, looked up): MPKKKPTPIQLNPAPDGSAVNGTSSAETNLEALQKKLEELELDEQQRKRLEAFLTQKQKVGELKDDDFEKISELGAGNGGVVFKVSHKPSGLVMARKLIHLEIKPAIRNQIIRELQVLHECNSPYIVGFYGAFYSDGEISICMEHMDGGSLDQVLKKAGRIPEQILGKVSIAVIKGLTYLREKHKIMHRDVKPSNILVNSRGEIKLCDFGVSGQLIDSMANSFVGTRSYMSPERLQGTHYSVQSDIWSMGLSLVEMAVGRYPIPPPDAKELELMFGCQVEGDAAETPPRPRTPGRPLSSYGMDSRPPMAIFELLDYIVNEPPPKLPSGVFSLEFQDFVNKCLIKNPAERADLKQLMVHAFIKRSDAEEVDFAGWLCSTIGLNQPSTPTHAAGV

[13] = target: MAP3K7 (human) (UniProt O43318)
[14] = target: MAPK14 (human) (UniProt Q16539)
[15] = target: MARK1 (human) (UniProt Q9P0L2)
Chain of MARK1 (human) (Q9P0L2 whole entry, looked up): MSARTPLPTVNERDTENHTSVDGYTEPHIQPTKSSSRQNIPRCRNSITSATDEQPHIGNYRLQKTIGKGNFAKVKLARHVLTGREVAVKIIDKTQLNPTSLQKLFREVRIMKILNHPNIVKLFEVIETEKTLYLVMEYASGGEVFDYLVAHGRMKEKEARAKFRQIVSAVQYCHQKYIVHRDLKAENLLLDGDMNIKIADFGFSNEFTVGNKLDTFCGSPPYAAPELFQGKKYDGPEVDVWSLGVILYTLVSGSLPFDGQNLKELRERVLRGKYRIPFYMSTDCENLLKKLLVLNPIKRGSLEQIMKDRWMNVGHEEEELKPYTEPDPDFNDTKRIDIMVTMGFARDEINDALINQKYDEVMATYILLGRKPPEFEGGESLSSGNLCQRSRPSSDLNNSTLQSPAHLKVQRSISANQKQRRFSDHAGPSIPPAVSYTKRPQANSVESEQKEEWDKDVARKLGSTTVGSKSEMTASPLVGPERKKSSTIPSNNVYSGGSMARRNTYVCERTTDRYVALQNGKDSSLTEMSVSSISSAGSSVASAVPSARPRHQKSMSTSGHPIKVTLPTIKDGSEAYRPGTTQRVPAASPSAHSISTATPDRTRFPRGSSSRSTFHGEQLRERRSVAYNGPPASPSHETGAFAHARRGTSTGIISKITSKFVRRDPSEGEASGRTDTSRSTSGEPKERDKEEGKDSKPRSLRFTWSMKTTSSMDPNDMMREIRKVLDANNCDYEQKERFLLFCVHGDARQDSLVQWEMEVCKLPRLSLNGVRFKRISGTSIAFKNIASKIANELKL

[16] = target: MINK1 (human) (UniProt Q8N4C8)
[17] = target: MKNK2 (human) (UniProt Q9HBH9)
Chain of MKNK2 (human) (Q9HBH9 whole entry, looked up): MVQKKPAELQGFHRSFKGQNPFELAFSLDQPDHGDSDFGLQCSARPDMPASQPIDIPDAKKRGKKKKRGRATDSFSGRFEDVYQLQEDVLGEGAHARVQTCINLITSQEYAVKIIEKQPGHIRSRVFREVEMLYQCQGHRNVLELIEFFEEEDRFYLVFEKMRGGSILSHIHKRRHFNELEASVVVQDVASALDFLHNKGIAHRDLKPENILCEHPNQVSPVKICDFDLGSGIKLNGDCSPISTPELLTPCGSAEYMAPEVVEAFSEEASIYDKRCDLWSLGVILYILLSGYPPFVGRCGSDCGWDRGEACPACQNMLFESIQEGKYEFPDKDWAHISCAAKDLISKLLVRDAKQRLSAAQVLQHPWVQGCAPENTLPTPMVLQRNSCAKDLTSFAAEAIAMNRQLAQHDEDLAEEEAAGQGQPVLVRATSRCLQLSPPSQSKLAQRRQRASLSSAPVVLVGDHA

[18] = target: MYLK (human) (UniProt Q15746)
[19] = target: NEK2 (human) (UniProt P51955)
Chain of NEK2 (human) (P51955 whole entry, looked up): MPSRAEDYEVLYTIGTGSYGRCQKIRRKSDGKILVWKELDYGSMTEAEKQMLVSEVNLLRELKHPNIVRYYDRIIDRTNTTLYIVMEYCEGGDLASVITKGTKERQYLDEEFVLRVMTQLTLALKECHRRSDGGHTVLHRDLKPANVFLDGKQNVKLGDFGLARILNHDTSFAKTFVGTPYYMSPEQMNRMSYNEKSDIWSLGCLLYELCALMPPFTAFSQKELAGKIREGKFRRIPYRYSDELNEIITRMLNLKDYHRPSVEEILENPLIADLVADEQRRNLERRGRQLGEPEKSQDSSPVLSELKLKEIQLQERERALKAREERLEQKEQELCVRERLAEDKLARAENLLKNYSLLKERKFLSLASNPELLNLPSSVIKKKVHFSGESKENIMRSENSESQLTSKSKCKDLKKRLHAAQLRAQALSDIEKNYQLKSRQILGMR

[20] = target: PDGFRA (human) (UniProt P16234)
[21] = target: PHKG1 (human) (UniProt Q16816)
[22] = target: PKN2 (human) (UniProt Q16513)
Chain of PKN2 (human) (Q16513 whole entry, looked up): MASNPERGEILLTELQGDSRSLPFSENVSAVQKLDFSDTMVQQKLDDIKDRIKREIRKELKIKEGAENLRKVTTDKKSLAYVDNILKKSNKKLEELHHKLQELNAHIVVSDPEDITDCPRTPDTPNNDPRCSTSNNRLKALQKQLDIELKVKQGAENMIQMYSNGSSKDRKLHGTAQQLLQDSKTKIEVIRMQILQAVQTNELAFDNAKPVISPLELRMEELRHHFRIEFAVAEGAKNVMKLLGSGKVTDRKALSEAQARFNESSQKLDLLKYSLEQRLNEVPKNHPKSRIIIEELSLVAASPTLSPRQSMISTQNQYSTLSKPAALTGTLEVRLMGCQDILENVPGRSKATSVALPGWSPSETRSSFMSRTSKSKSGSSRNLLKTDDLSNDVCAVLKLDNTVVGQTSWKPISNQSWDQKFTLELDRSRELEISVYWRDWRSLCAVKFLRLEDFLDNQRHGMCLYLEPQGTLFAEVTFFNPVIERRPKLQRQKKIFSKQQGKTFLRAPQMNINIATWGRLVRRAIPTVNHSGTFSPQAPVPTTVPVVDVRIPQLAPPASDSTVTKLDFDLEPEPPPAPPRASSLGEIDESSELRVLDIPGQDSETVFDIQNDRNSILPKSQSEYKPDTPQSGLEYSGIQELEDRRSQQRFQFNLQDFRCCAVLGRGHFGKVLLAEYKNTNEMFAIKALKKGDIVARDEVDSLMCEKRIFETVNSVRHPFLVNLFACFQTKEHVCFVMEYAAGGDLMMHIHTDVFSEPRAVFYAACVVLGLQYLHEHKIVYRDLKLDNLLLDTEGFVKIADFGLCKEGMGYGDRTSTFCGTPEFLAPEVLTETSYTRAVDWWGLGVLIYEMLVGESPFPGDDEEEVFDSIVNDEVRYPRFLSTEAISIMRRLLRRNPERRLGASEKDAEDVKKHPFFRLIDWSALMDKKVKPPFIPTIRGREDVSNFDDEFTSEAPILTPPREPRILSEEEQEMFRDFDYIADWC

[23] = target: PRKCA (human) (UniProt P17252)
[24] = target: PRKCG (human) (UniProt P05129)
[25] = target: RPS6KA1 KD1 KD2 (human) (UniProt Q15418)
[26] = target: SRPK1 (human) (UniProt Q96SB4)
[27] = target: STK16 (human) (UniProt O75716)
[28] = target: STK3 (human) (UniProt Q13188)
[29] = target: STK33 (human) (UniProt Q9BYT3)
[30] = target: TSSK1B (human) (UniProt Q9BXA7)
[31] = target: TTBK1 (human) (UniProt Q5TCY1)
Chain of TTBK1 (human) (Q5TCY1 whole entry, looked up): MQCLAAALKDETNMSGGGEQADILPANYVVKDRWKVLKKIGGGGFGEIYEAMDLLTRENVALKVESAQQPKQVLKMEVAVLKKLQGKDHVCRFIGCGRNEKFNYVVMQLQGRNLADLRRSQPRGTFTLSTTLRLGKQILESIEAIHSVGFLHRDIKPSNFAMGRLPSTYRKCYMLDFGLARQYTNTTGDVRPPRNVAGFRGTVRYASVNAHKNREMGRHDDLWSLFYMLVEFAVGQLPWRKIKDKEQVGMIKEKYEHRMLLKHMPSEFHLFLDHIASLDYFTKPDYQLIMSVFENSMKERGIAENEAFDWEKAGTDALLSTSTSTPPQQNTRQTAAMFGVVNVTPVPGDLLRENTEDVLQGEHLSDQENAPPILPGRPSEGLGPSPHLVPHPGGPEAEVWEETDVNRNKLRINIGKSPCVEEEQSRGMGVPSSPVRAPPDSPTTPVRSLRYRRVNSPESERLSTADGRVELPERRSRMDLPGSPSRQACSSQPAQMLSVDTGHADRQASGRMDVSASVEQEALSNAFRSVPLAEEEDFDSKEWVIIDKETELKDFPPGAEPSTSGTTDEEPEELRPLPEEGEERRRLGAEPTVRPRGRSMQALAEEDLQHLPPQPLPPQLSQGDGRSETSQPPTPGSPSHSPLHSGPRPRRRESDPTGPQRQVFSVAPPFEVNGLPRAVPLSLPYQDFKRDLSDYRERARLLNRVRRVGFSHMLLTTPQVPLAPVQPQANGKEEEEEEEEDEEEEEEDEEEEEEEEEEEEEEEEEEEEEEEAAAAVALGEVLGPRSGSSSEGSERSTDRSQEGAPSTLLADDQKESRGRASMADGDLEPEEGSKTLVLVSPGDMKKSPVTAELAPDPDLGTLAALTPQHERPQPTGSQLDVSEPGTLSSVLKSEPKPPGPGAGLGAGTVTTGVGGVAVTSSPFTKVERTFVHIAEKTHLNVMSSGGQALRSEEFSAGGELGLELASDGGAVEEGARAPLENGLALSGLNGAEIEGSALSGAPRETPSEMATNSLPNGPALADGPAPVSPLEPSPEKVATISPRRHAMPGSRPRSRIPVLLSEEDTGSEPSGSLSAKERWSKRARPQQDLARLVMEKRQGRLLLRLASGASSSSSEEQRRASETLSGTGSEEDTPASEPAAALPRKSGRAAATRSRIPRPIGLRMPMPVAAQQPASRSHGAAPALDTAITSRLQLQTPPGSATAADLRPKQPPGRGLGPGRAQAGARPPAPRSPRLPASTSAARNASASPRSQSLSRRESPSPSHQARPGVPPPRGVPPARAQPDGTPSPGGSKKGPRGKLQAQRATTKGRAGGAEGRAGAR

[32] = target: YES1 (human) (UniProt P07947); settings: compound 10.0 µM

## CNc1nc(Nc2ccc(C(=O)N3CCOCC3)cc2OC)ncc1Cl
[1]; compound 1.0 µM
  residual activity: 84%
[1]; compound 10.0 µM
  residual activity: 86%
[2]; compound 1.0 µM
  residual activity: 83%
[2]; compound 10.0 µM
  residual activity: 42%
[3]; compound 1.0 µM
  residual activity: 52%
[3]; compound 10.0 µM
  residual activity: 31%
[4]; compound 1.0 µM
  residual activity: 82%
[4]; compound 10.0 µM
  residual activity: 65%
[5]; compound 1.0 µM
  residual activity: 89%
[5]; compound 10.0 µM
  residual activity: 83%
[6]; compound 1.0 µM
  residual activity: 97%
[6]; compound 10.0 µM
  residual activity: 103%
[7]; compound 1.0 µM
  residual activity: 44%
[7]; compound 10.0 µM
  residual activity: 89%
[8]; compound 1.0 µM
  residual activity: 84%
[8]; compound 10.0 µM
  residual activity: 76%
[9]; compound 1.0 µM
  residual activity: 89%
[9]; compound 10.0 µM
  residual activity: 86%
[10]
  residual activity: 65%
[11]; compound 1.0 µM
  residual activity: 108%
[11]; compound 10.0 µM
  residual activity: 79%
[12]; compound 1.0 µM
  residual activity: 106%
[12]; compound 10.0 µM
  residual activity: 93%
[13]; compound 1.0 µM
  residual activity: 74%
[13]; compound 10.0 µM
  residual activity: 25%
[14]; compound 1.0 µM
  residual activity: 71%
[14]; compound 10.0 µM
  residual activity: 93%
[15]; compound 1.0 µM
  residual activity: 91%
[15]; compound 10.0 µM
  residual activity: 84%
[16]; compound 1.0 µM
  residual activity: 86%
[16]; compound 10.0 µM
  residual activity: 96%
[17]; compound 1.0 µM
  residual activity: 20%
[17]; compound 10.0 µM
  residual activity: 7%
[18]; compound 1.0 µM
  residual activity: 83%
[18]; compound 10.0 µM
  residual activity: 55%
[19]; compound 1.0 µM
  residual activity: 63%
[19]; compound 10.0 µM
  residual activity: 90%
[20]; compound 1.0 µM
  residual activity: 79%
[20]; compound 10.0 µM
  residual activity: 56%
[21]; compound 1.0 µM
  residual activity: 68%
[21]; compound 10.0 µM
  residual activity: 23%
[22]; compound 1.0 µM
  residual activity: 102%
[22]; compound 10.0 µM
  residual activity: 92%
[23]; compound 1.0 µM
  residual activity: 66%
[23]; compound 10.0 µM
  residual activity: 87%
[24]; compound 1.0 µM
  residual activity: 93%
[24]; compound 10.0 µM
  residual activity: 108%
[25]; compound 1.0 µM
  residual activity: 87%
[25]; compound 10.0 µM
  residual activity: 54%
[26]; compound 1.0 µM
  residual activity: 96%
[26]; compound 10.0 µM
  residual activity: 94%
[27]; compound 1.0 µM
  residual activity: 100%
[27]; compound 10.0 µM
  residual activity: 97%
[28]; compound 1.0 µM
  residual activity: 85%
[28]; compound 10.0 µM
  residual activity: 73%
[29]; compound 1.0 µM
  residual activity: 61%
[29]; compound 10.0 µM
  residual activity: 28%
[30]; compound 1.0 µM
  residual activity: 51%
[30]; compound 10.0 µM
  residual activity: 19%
[31]; compound 1.0 µM
  residual activity: 88%
[31]; compound 10.0 µM
  residual activity: 91%
[32]
  residual activity: 90%
